Data published in patent US20050203086A1, “Methods of treatment using an EP2 selective receptor agonist” (Pfizer Inc., priority 2004, published 2005).

These molecules were tested against T1, prostaglandin E2 type 2 (EP2) receptors (Homo sapiens, UniProt P43116) (assay: Assay for Binding to Prostaglandin E2 Receptors (3H-prostaglandin E2 displacement, membranes of transfected 293S cells)). Conditions: concentration displacing 50% of specifically bound 3H-prostaglandin E2, 1 hour at 25° C.
T1 construct: These full length receptors are used to prepare 293S cells expressing the EP1, EP2, EP3 and EP4 receptors; expressed in transfected cells; membranes
Procedure: Membrane Preparation: All operations are performed at […]. Transfected cells expressing prostaglandin E2 type 1 receptors (EP1), type 2 (EP2), type 3 (EP3) or type 4 (EP4) receptors are harvested and suspended to 2 million cells per ml in Buffer A [50 mM Tris-HCl (pH 7.4), 10 mM MgCl2, 1 mM EDTA, 1 mM Pefabloc peptide, (Boehringer Mannheim Corp., Indianapolis, Ind.), 10 uM Phosporamidon peptide, (Sigma, St. Louis, Mo.), 1 uM pepstatin A peptide, (Sigma, St. Louis, Mo.), 10 uM elastatinal peptide, (Sigma, St. Louis, Mo.), 100 uM antipain peptide, (Sigma, St. Louis, Mo.)]. The cells are lysed by sonification with a Branson Sonifier (Model #250, Branson Ultrasonics Corporation, Danbury, Conn.) in 2 fifteen second bursts. Unlysed cells and debris are removed by centrifugation, at 100×g for 10 min. Membranes are then harvested by centrifugation at 45,000×g for 30 minutes. […] Resuspended membranes are then stored frozen at −80° C. until use.
Binding Assay: Frozen membranes prepared as above are thawed and diluted to 1 mg protein per ml in Buffer A above. […] The membranes with bound ^3H-prostaglandin E2 are trapped by the filter, while the buffer and unbound ^3H-prostaglandin E2 pass through the filter into waste. Each sample is then washed 3 times with 3 ml of [50 mM Tris-HCl (pH 7.4), 10 mM MgCl2, 1 mM EDTA]. The filters are then dried by heating in a microwave oven.
Typically, PCR (polymerase chain reaction) primers corresponding to the 5′ and 3′ ends of the published full length receptor are made according to the well known methods disclosed above and are used in an RT-PCR reaction using the total RNA from human kidney (for EP1), human lung (for EP2), human lung (for EP3) or human lymphocytes (for EP4) as a source. PCR products are cloned by the TA overhang method into pCR2.1 (Invitrogen, Carlsbad, Calif.) and identity of the cloned receptor is confirmed by DNA sequencing.
Stable cell lines expressing the receptor are established following selection of transfected cells with G418.

T1 sequence (P43116 whole entry): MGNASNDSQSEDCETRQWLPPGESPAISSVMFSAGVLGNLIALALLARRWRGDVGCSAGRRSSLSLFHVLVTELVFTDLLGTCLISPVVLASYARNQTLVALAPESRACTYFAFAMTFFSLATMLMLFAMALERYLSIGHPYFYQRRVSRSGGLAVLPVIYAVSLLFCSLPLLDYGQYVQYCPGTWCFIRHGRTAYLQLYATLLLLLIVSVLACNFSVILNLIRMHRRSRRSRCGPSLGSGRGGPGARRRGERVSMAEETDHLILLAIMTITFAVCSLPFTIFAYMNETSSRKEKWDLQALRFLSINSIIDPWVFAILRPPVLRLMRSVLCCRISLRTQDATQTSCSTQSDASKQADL

Question: For `O=C(O)c1ccc(CCCN(CCCc2cccc(Cl)c2)C(=O)Nc2c(F)cccc2F)s1` [Example 7h, 5-(3-(1-(3-(3-Chloro-phenyl)-propyl)-3-(2,6-difluoro-phenyl)-ureido)-propyl)-thiophene-2-carboxylic acid], which IC50 is on record?
Answer: 172 nM

Question: How did the IC50 turn out when `CCCNC(=O)N(CCCc1cccc(Cl)c1)CCCc1ccc(C(=O)O)s1` [Example 7d, 5-(3-(1-(3-(3-Chloro-Phenyl)-propyl)-3-propyl-ureido)-propyl)-thiophene-2-carboxylic acid] was run?
Answer: 52 nM

Question: With `CCCCc1ccc(CN(Cc2cccc(CC(=O)O)c2)S(=O)(=O)c2ccc(C)cc2)cc1` [Example 1o, (3-(((4-Butyl-benzyl)-(toluene-4-sulfonyl)-amino)-methyl)-phenyl)-acetic acid] as the molecule, how does the IC50 read?
Answer: 550 nM

Question: How did the IC50 turn out when `O=C(O)c1ccc(CCCN(CCCc2cccc(Cl)c2)S(=O)(=O)c2cccnc2)o1` [Example 4e, 5-(3-((3-(3-Chloro-phenyl)-propyl)-(pyridine-3-sulfonyl)-amino)-propyl)-furan-2-carboxylic acid] was run?
Answer: 410 nM

Question: With `O=C(O)c1ccc(CCCN(CCCc2cccc(Cl)c2)C(=O)c2cccnc2)s1` [Example 5, 5-(3-((3-(3-Chloro-phenyl)-propyl)-(pyridine-3-carbonyl)-amino)-propyl)-thiophene-2-carboxylic acid] as the molecule, how does the IC50 read?
Answer: 980 nM

Question: How did the IC50 turn out when `O=C(O)Cc1cccc(CN(Cc2ccc(-c3ncccn3)cc2)S(=O)(=O)c2cccnc2)c1` [Example 1t, (3-(((Pyridine-3-sulfonyl)-(4-pyrimidin-2-yl-benzyl)-amino)-methyl)-phenyl)-acetic acid] was run?
Answer: 8 nM

Question: How did the IC50 turn out when `CCCCc1ccc(CN(CCCCCCC(=O)O)S(=O)(=O)c2ccccc2)cc1` [Example 1a, 7-(Benzenesulfonyl-(4-butyl-benzyl)-amino)-heptanoic acid] was run?
Answer: 2200 nM

Question: For `O=C(O)c1ccc(CCCN(CCCc2cccc(Cl)c2)S(=O)(=O)c2cccnc2)s1` [Example 4, 5-(3-((3-(3-Chloro-phenyl)-propyl)-(pyridine-3-sulfonyl)-amino)-propyl)-thiophene-2-carboxylic acid], which IC50 is on record?
Answer: 225 nM

Question: Which IC50 does the source give for `CCCCc1ccc(CN(Cc2cccc(CC(=O)O)c2)S(=O)(=O)c2cccc(F)c2)cc1` [Example 1m, (3-(((4-Butyl-benzyl)-(3-fluoro-benzenesulfonyl)-amino)-methyl)-phenyl)-acetic acid] here?
Answer: 245 nM

Question: For `O=C(O)c1ccc(CCCN(CCCc2cccc(Cl)c2)C(=O)Nc2cc(Cl)cc(Cl)c2)s1` [Example 7g, 5-(3-(1-(3-(3-Chloro-phenyl)-propyl)-3-(3,5-dichloro-phenyl)-ureido)-propyl)-thiophene-2-carboxylic acid], which IC50 is on record?
Answer: 412 nM

Question: How did the IC50 turn out when `CCCOc1ccc(CN(Cc2cccc(CC(=O)O)c2)S(=O)(=O)c2cccnc2)cc1O` [Example 1f, (3-(((3-Hydroxy-4-propoxy-benzyl)-(pyridine-3-sulfonyl)-amino)-methyl)-phenyl)-acetic acid] was run?
Answer: 52 nM

Question: Which IC50 does the source give for `O=C(O)c1ccc(CCCN(CCCc2cccc(Cl)c2)S(=O)(=O)c2ccc3ccccc3c2)s1` [Example 4f, 5-(3-((3-(3-Chloro-phenyl)-propyl)-(naphthalene-2-sulfonyl)-amino)-propyl)-thiophene-2-carboxylic acid] here?
Answer: 705 nM

Question: `CCCCc1ccc(CN(Cc2cccc(CC(=O)O)c2)S(=O)(=O)c2csc(-c3ccccn3)c2)cc1` [Example 1n, (3-(((4-Butyl-benzyl)-(5-pyridin-2-yl-thiophene-3-sulfonyl)-amino)-methyl)-phenyl)-acetic acid] was tested. Which IC50 did it give?
Answer: 140 nM

Question: `O=C(O)Cc1cccc(CN(Cc2ccc(SCCc3ccccc3)cc2)S(=O)(=O)c2cccnc2)c1` [Example 1e] was tested. Which IC50 did it give?
Answer: 760 nM

Question: `CC(C)Oc1ccc(CN(Cc2cccc(CC(=O)O)c2)S(=O)(=O)c2cccnc2)cc1` [Example 1i, (3-(((4-Isopropoxy-benzyl)-(pyridine-3-sulfonyl)-amino)-methyl)-phenyl)-acetic acid] was tested. Which IC50 did it give?
Answer: 72 nM

Question: How did the IC50 turn out when `O=C(O)c1ccc(CCCN(CCCc2cccc(Cl)c2)S(=O)(=O)c2cccc3nsnc23)s1` [Example 4b, 5-(3-((Benzo[1,2.5]thiadiazole-4-sulfonyl)-(3-(3-chloro-phenyl)-propyl)-amino)-propyl)-thiophene-2-carboxylic acid] was run?
Answer: 440 nM

Question: Which IC50 does the source give for `CNS(=O)(=O)c1ccc(CN(Cc2cccc(CC(=O)O)c2)S(=O)(=O)c2cccnc2)cc1` [Example 1h, (3-(((4-Methylsulfamoyl-benzyl)-(pyridine-3-sulfonyl)-amino)-methyl)-phenyl)-acetic acid] here?
Answer: 745 nM

Question: Which IC50 does the source give for `O=C(O)Cc1cccc(CN(Cc2ccc3c(c2)OCO3)S(=O)(=O)c2cccnc2)c1` [Example 1ah, (3-((Benzo[1,3]dioxol-5-ylmethyl-(pyridine-3-sulfonyl)-amino)-methyl)-phenyl)-acetic acid] here?
Answer: 181 nM

Question: `CC(=O)Nc1nc(C)c(S(=O)(=O)N(CCCc2cccc(Cl)c2)CCCc2ccc(C(=O)O)s2)s1` [Example 4h, 5-(3-((2-Acetylamino-4-methyl-thiazole-5-sulfonyl)-(3-(3-chloro-phenyl)-propyl)-amino)-propyl)-thiophene-2-carboxylic acid] was tested. Which IC50 did it give?
Answer: 210 nM

Question: Which IC50 does the source give for `O=C(O)Cc1cccc(CN(Cc2ccc(-c3cncnc3)cc2)S(=O)(=O)c2cccnc2)c1` [Example 1aj, (3-(((Pyridine-3-sulfonyl)-(4-pyrimidin-5-yl-benzyl)-amino)-methyl)-phenyl)-acetic acid] here?
Answer: 25.5 nM

Question: Which IC50 does the source give for `CC(C)NC(=O)N(CCCc1cccc(Cl)c1)CCCc1ccc(C(=O)O)s1` [Example 7a, 5-(3-(1-(3-(3-Chloro-phenyl)-propyl)-3-isopropyl-ureido)-propyl)-thiophene-2-carboxylic acid] here?
Answer: 400 nM

Question: `O=C(O)c1ccc(CCCN(CCSc2cccc(Cl)c2)S(=O)(=O)c2cccnc2)s1` [Example 3a, 5-(3-((2-(3-Chloro-phenylsulfanyl)-ethyl)-(pyridine-3-sulfonyl)-amino)-propyl) thiophene-2-carboxylic acid] was tested. Which IC50 did it give?
Answer: 440 nM

Question: For `CN(C)c1ccc(CN(Cc2cccc(CC(=O)O)c2)S(=O)(=O)c2cccnc2)cc1` [Example 1w, (3-(((4-Dimethylamino-benzyl)-(pyridine-3-sulfonyl)-amino]-methyl)-phenyl)-acetic acid], which IC50 is on record?
Answer: 24 nM

Question: `O=C(O)Cc1cccc(CN(C/C=C/c2cc(Cl)cc(Cl)c2)S(=O)(=O)c2cccnc2)c1` [Example 2a, Trans-(3-(((3-(3,5-Dichloro-phenyl)-allyl)-(pyridine-3-sulfonyl)-amino)-methyl)-phenyl)-acetic acid] was tested. Which IC50 did it give?
Answer: 37 nM

Question: Which IC50 does the source give for `O=C(O)c1ccc(CCCN(CCCc2cccc(Cl)c2)C(=O)N2CCOCC2)s1` [Example 8a, 5-(3-((3-(3-Chloro-phenyl)-Propyl)-(morpholine-4-carbonyl)-amino)-propyl)-thiophene-2-carboxylic acid] here?
Answer: 180 nM

Question: With `O=C(O)COc1cccc(CN(CCCc2cccc(Cl)c2)S(=O)(=O)c2cccnc2)c1` [Example 1ab, (3-(((3-(3-Chloro-phenyl)-propyl)-(pyridine-3-sulfonyl)-amino)-methyl)-phenoxy) acetic acid] as the molecule, how does the IC50 read?
Answer: 110 nM

Question: `O=C(O)Cc1cccc(CN(CCOc2cccc(Cl)c2)S(=O)(=O)c2cccnc2)c1` [Example 2, (3-(((2-(3-Chloro-phenoxy)-ethyl)-(Pyridine-3-sulfonyl)-amino]-methyl)-phenyl)-acetic acid] was tested. Which IC50 did it give?
Answer: 45 nM

Question: How did the IC50 turn out when `O=C(O)Cc1cccc(CN(Cc2cc3ccccc3o2)S(=O)(=O)c2cccnc2)c1` [Example 1q, (3-((Benzofuran-2-ylmethyl-(pyridine-3-sulfonyl)-amino)-methyl)-phenyl)-acetic acid] was run?
Answer: 39 nM

Question: Which IC50 does the source give for “5-(3-(Benzenesulfonyl-(3-(3-chloro-phenyl)-propyl)-amino)-propyl)-thiophene-2-carboxylic acid [Example 4c]” here?
Answer: 885 nM

Question: With `CC(C)OC(=O)N(CCCc1cccc(Cl)c1)CCCc1ccc(C(=O)O)s1` [Example 8b, 5-(3-((3-(3-Chloro-phenyl)-propyl)-isopropoxycarbonyl-amino)-propyl)-thiophene-2-carboxylic acid] as the molecule, how does the IC50 read?
Answer: 266 nM

Question: For `O=C(O)c1ccc(CCCN(CCCc2cccc(Cl)c2)S(=O)(=O)c2cccc3ccccc23)s1` [Example 4g, 5-(3-((3-(3-Chloro-phenyl)-propyl)-(naphthalene-1-sulfonyl)-amino)-propyl)-thiophene-2-carboxylic acid], which IC50 is on record?
Answer: 720 nM

Question: For `Cn1cnc(S(=O)(=O)N(Cc2ccc(Oc3ccccc3)cc2)Cc2cccc(CC(=O)O)c2)c1` [Example 1ae, (3-(((11-Methyl-1H-imidazole-4-sulfonyl)-(4-phenoxy-benzyl)-amino)-methyl)-phenyl)-acetic acid], which IC50 is on record?
Answer: 121 nM

Question: With `CCCCc1ccc(CN(Cc2cccc(CC(=O)O)c2)S(=O)(=O)c2cn(C)cn2)cc1` [Example 1r, (3-(((4-Butyl-benzyl)-(1-methyl-1H-imidazole-4-sulfonyl)-amino)-methyl)-Phenyl)-acetic acid] as the molecule, how does the IC50 read?
Answer: 308 nM
